Read-outs that look alike come from different tables or passages of the source.

Results on 42 compounds are retold here after US6608082B1, “Treatment of erectile dysfunction using isoquinoline compound melanocortin receptor ligands” (Lion Bioscience AG, priority 1998, dated 2003).

The target of this assay is T1, MCR-1 (Homo sapiens, UniProt Q01726).
T1 construct: expressed in transfected cells; host or cells: HEK 293
Nature of the assay: Melanocortin receptor binding assay, competition with 125I-HP 467, HEK 293 cells expressing hMCR-1. As to conditions: for % Disp. MC-1 10 μM: displacement of 125I-HP 467 at 10 μM isoquinoline compound; for % Disp. of 125I-HP 467 (first of duplicate) / % Disp. of 125I-HP 467 (second of duplicate): 10 μM isoquinoline compound; for % Disp. of 125I-HP 467 (first of duplicate): HEK 293 cells expressing MCR-1, duplicate 1; for % Disp. of 125I-HP 467 (second of duplicate): HEK 293 cells expressing MCR-1, duplicate 2; for IC50: read-out: MC-1 IC50. The method, then: All cell culture media and reagents were obtained from GibcoBRL (Gaithersburg Md.), except for COSMIC CALF SERUM (HyClone; Logan Utah).
Cells were suspended in PBS, 10% COSMIC CALF SERUM and 1 mM CaCl2. Cell suspensions were prepared at a density of 2×10^4 cells/ml for HEK 293 cells expressing hMCR-3, hMCR-4 or hMCR-5, and 1×10^5 cells/ml for HEK 293 cells expressing hMCR-1. Suspensions were placed in a water bath and allowed to warm to 37° C. for 1 hr.
Binding assays were performed in a total volume of 250 μl for HEK 293 cells. […] To each tube was added 4×10^3 HEK 293 cells expressing hMCR-3, hMCR-4 or hMCR-5, or 2×10^4 cells expressing hMCR-1. Assays were incubated for 2.5 hr at 37° C.
GF/B filter plates were prepared by soaking for at least one hour in 5 mg/ml BSA and 10 mM CaCl2. Assays were filtered using a Brandel 96-well cell harvester (Brandel Inc.; Gaithersburg, Md.). The filters were washed four times with cold 50 mM Tris, pH 7.4, the filter plates were dehydrated for 2 hr and 35 μl of MICROSCINT was added to each well. Filter plates were counted using a Packard Topcount (Packard Instrument Co.) and data analyzed using GraphPad PRISM v2.0 (GraphPad Software Inc.; San Diego Calif.) and Microsoft EXCEL v5.0a (Microsoft Corp.; Redmond Wash.).
To assay isoquinoline compounds, binding assays were performed in duplicate in a 96 well format. […] A 0.2 ml aliquot of suspended cells was added to each well to give the cell numbers indicate above, and the cells were incubated at 37° C. for 2.5 hr. Cells were harvested on GF/B filter plates as described above and counted.
On the technique in general: Displacement assays read how much labelled ligand stays bound in the presence of the test substance.

[1] abbreviates: competition with 125I-HP 467, HEK 293 cells expressing MCR-1.
Setting [2] is: inhibition of binding of 125I-HP 467, HEK 293 cells expressing MCR-1.

T1 sequence (Q01726 whole entry): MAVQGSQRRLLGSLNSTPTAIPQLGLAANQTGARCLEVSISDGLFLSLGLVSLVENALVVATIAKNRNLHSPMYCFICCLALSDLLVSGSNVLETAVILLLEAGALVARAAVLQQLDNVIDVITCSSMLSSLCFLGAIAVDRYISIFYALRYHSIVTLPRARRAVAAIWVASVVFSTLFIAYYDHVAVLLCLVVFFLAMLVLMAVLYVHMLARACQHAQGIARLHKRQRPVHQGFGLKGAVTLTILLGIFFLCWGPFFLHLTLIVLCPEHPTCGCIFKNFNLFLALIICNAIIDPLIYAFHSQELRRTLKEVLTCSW

Turning to `NCCN1Cc2ccccc2C(CNC2CCCCC2)C1c1ccccc1` (mixture of isomers) [TRG 2405-1], the “% Disp. MC-1 10 μM” value (first of duplicate) came out at 85.3% and the “% Disp. MC-1 10 μM” value (second of duplicate) was determined as 24.1%.

On to `CNC(CN)CN1Cc2ccccc2C(CNC2CCCCC2)C1c1ccc2ccccc2n1` (mixture of isomers) [TRG 2405-112], for which the “% Disp. MC-1 10 μM” value by setting is: (first of duplicate) 42.2%; (second of duplicate) 43.2%.

In the case of `CNC(CN)CN1Cc2ccccc2C(CNC2CCCCC2)C1c1cc(C(F)(F)F)cc(C(F)(F)F)c1` (mixture of isomers) [TRG 2405-118], the “% Disp. MC-1 10 μM” value (first of duplicate) worked out at 47.3% and the “% Disp. MC-1 10 μM” value (second of duplicate) is recorded as 58.9%.

As for `CNC(CN)CN1Cc2ccccc2C(CNC2CCCCC2)C1c1cc(Cl)cc(Cl)c1` (mixture of isomers) [TRG 2405-120], the “% Disp. MC-1 10 μM” value reads like this: (first of duplicate) 52.4%; (second of duplicate) 54.3%.

In the case of `CNC(CN)CN1Cc2ccccc2C(CNC2CCCCC2)C1c1ccc(OC)c(C)c1` (mixture of isomers) [TRG 2405-136], the “% Disp. MC-1 10 μM” value was 49% (first of duplicate) and 51.8% (second of duplicate).

Turning to `CNC(CN)CN1Cc2ccccc2C(CNC2CCCCC2)C1c1ccsc1` (mixture of isomers) [TRG 2405-143], the “% Disp. MC-1 10 μM” value runs as follows: (first of duplicate) 54.6%; (second of duplicate) 50.4%.

Regarding `CNC(CN)CN1Cc2ccccc2C(CNC2CCCCC2)C1c1ccc(Br)cc1` (mixture of isomers) [TRG 2405-152], the “% Disp. MC-1 10 μM” value is, setting by setting: (first of duplicate) 52.8%; (second of duplicate) 52.9%.

In the case of `CNC(CN)CN1Cc2ccccc2C(CNC2CCCCC2)C1c1ccc([N+](=O)[O-])c(O)c1` (mixture of isomers) [TRG 2405-160], the “% Disp. MC-1 10 μM” value (first of duplicate) turned out to be 26.1% and the “% Disp. MC-1 10 μM” value (second of duplicate) is reported as 41.7%.

Take `CNC(CN)CN1Cc2ccccc2C(CNC2CCCCC2)C1c1ccc([N+](=O)[O-])cc1` (mixture of isomers) [TRG 2405-161]: the “% Disp. MC-1 10 μM” value by setting is: (first of duplicate) 58.4%; (second of duplicate) 59.1%.

With `CNC(CN)CCCCN1Cc2ccccc2C(CNC2CCCCC2)C1c1ccccc1O` (mixture of isomers) [TRG 2405-182], the “% Disp. of 125I-HP 467 (first of duplicate)” value is listed as 37.5% and the “% Disp. of 125I-HP 467 (second of duplicate)” value is 44.4%.

Regarding `CNC(CN)CCCCN1Cc2ccccc2C(CNC2CCCCC2)C1c1ccc2c(c1)OCCO2` (mixture of isomers) [TRG 2405-183], the “% Disp. of 125I-HP 467 (first of duplicate)” value amounted to 58.9% and the “% Disp. of 125I-HP 467 (second of duplicate)” value is listed as 64.1%.

In the case of `CNC(CN)CCCCN1Cc2ccccc2C(CNC2CCCCC2)C1c1cc(Cl)cc(Cl)c1Cl` (mixture of isomers) [TRG 2405-187], the “% Disp. of 125I-HP 467 (first of duplicate)” value came out at 64.6% and the “% Disp. of 125I-HP 467 (second of duplicate)” value is 59.3%.

In the case of `CNC(CN)CCCCN1Cc2ccccc2C(CNC2CCCCC2)C1c1ccc(F)c(F)c1` (mixture of isomers) [TRG 2405-207], the “% Disp. of 125I-HP 467 (first of duplicate)” value is 65% and the “% Disp. of 125I-HP 467 (second of duplicate)” value is listed as 65.5%.

As for `CNC(CN)CCCCN1Cc2ccccc2C(CNC2CCCCC2)C1c1cccc(Oc2ccc(Cl)c(Cl)c2)c1` (mixture of isomers) [TRG 2405-213], the “% Disp. of 125I-HP 467 (first of duplicate)” value is 80% and the “% Disp. of 125I-HP 467 (second of duplicate)” value was 78.1%.

Turning to `CNC(CN)CCCCN1Cc2ccccc2C(CNC2CCCCC2)C1c1ccc(OC)c(C)c1` (mixture of isomers) [TRG 2405-226], the “% Disp. of 125I-HP 467 (first of duplicate)” value worked out at 79.1% and the “% Disp. of 125I-HP 467 (second of duplicate)” value came out at 77.7%.

As to `CNC(CN)CCCCN1Cc2ccccc2C(CNC2CCCCC2)C1c1ccsc1` (mixture of isomers) [TRG 2405-233], the “% Disp. of 125I-HP 467 (first of duplicate)” value is recorded as 53.6% and the “% Disp. of 125I-HP 467 (second of duplicate)” value stood at 42.8%.

As for `CNC(CN)CCCCN1Cc2ccccc2C(CNC2CCCCC2)C1c1ccc(OC)c2ccccc12` (mixture of isomers) [TRG 2405-248], the “% Disp. of 125I-HP 467 (first of duplicate)” value worked out at 56.5% and the “% Disp. of 125I-HP 467 (second of duplicate)” value turned out to be 67.9%.

As to `CNC(CN)CCCCN1Cc2ccccc2C(CNC2CCCCC2)C1c1ccc([N+](=O)[O-])c(O)c1` (mixture of isomers) [TRG 2405-250], the “% Disp. of 125I-HP 467 (first of duplicate)” value is 34.7% and the “% Disp. of 125I-HP 467 (second of duplicate)” value is 50.5%.

As for `CNC(CN)CCCCN1Cc2ccccc2C(CNC2CCCCC2)C1c1ccc[nH]1` (mixture of isomers) [TRG 2405-265], the “% Disp. of 125I-HP 467 (first of duplicate)” value was 60.5% and the “% Disp. of 125I-HP 467 (second of duplicate)” value was 54.1%.

`CNC(CN)CCCCN1Cc2ccccc2C(CNC2CCCCC2)C1c1ccc(S(C)(=O)=O)cc1` (mixture of isomers) [TRG 2405-267]: the “% Disp. of 125I-HP 467 (first of duplicate)” value was 21.5% and the “% Disp. of 125I-HP 467 (second of duplicate)” value was found to be 8.4%.

On to `CNC(C)CNC(CN)CCCCN1Cc2ccccc2C(CNC2CCCCC2)C1c1ccc(-c2ccccc2)cc1` (mixture of isomers) [TRG 2411-15], for which the IC50 under setting [1] worked out at 730 nM.

Turning to `NCC(CCCCN1Cc2ccccc2C(CN)C1c1ccc(-c2ccccc2)cc1)NCc1ccccc1` (mixture of isomers) [TRG 2411-35], the 50% inhibitory concentration (IC50) under setting [1] was 510 nM.

Regarding `CCCCNc1ccc(C2C(CNCCc3ccccc3)c3ccccc3CN2CCCCC(CN)NCCc2ccc(OC)cc2)cc1` (mixture of isomers) [TRG 2411-79], the half-inhibitory concentration (IC50) under setting [1] amounted to 370 nM.

`CCCCNc1ccc(C2C(CN)c3ccccc3CN2CCCCC(CN)NCc2ccc(Cl)cc2)cc1` (mixture of isomers) [TRG 2411-108]: under setting [1], the IC50 amounted to 160 nM.

Consider `NCC(N)CCCN1Cc2ccccc2C(CN)C1c1ccc(-c2ccccc2)cc1` (mixture of isomers) [TRG 2411-136], for which, under setting [1], the half-maximal inhibitory concentration (IC50) stood at 1730 nM.

In the case of `CNC(C)CNC(CN)CCCN1Cc2ccccc2C(CN)C1c1ccc(-c2ccccc2)cc1` (mixture of isomers) [TRG 2411-142], under setting [1], the IC50 came to 1280 nM.

As to `CCNc1ccc(C2C(CN)c3ccccc3CN2CCCC(N)CN)cc1` (mixture of isomers) [TRG 2411-174], the IC50 under setting [2] was determined as 480 nM.

`CCNc1ccc(C2C(CN)c3ccccc3CN2CCCC(CN)NCC)cc1` (mixture of isomers) [TRG 2411-176]: under setting [2], the IC50 is 220 nM.

On to `CCNc1ccc(C2C(CN)c3ccccc3CN2CCCC(CN)NCCc2ccc3ccccc3c2)cc1` (mixture of isomers) [TRG 2411-185], for which, under setting [2], the IC50 was 100 nM.

`CNC(CN)CCCCN1Cc2ccccc2C(CNCCc2ccccc2)C1c1ccc([N+](=O)[O-])cc1` (mixture of isomers) [TRG 2413-5]: the IC50 under setting [2] was found to be 4880 nM.

On to `NCCN1Cc2ccccc2C(CNC2CCCCC2)C1c1ccccc1O` (centres unmarked) [TRG 2405-2], for which the “% Disp. MC-1 10 μM” value reads like this: (first of duplicate) 42.9%; (second of duplicate) 40.8%.

As for `NCCN1Cc2ccccc2C(CNC2CCCCC2)C1c1ccc2c(c1)OCCO2` (centres unmarked) [TRG 2405-3], the “% Disp. MC-1 10 μM” value is, setting by setting: (first of duplicate) 46.8%; (second of duplicate) 44.2%.

Consider `NCCN1Cc2ccccc2C(CNC2CCCCC2)C1c1cccc2ccccc12` (centres unmarked) [TRG 2405-5], for which the “% Disp. MC-1 10 μM” value reads like this: (first of duplicate) 53.6%; (second of duplicate) 53.6%.

For `NCCN1Cc2ccccc2C(CNC2CCCCC2)C1c1ccc(F)c(F)c1F` (centres unmarked) [TRG 2405-6], the “% Disp. MC-1 10 μM” value (first of duplicate) is 45.7% and the “% Disp. MC-1 10 μM” value (second of duplicate) amounted to 50%.

For `NCCN1Cc2ccccc2C(CNC2CCCCC2)C1c1cc(Cl)cc(Cl)c1Cl` (centres unmarked) [TRG 2405-7], the “% Disp. MC-1 10 μM” value was 50.3% (first of duplicate) and 54.8% (second of duplicate).

Turning to `NCCN1Cc2ccccc2C(CNC2CCCCC2)C1c1cccc2c1OCO2` (centres unmarked) [TRG 2405-8], the “% Disp. MC-1 10 μM” value reads like this: (first of duplicate) 0%; (second of duplicate) 26.1%.

In the case of `NCCN1Cc2ccccc2C(CNC2CCCCC2)C1c1cccc(F)c1F` (centres unmarked) [TRG 2405-9], the “% Disp. MC-1 10 μM” value is 36.4% (first of duplicate) and 33.4% (second of duplicate).

On to `NCCN1Cc2ccccc2C(CNC2CCCCC2)C1c1ccc(Cl)cc1Cl` (centres unmarked) [TRG 2405-10], for which the “% Disp. MC-1 10 μM” value is on record as 56.9% (first of duplicate) and 53% (second of duplicate).

As to `NCCN1Cc2ccccc2C(CNC2CCCCC2)C1c1c(F)cccc1F` (centres unmarked) [TRG 2405-11], the “% Disp. MC-1 10 μM” value is, setting by setting: (first of duplicate) 45.1%; (second of duplicate) 27%.

Turning to `NCCN1Cc2ccccc2C(CNC2CCCCC2)C1c1ccccc1Br` (centres unmarked) [TRG 2405-12], the “% Disp. MC-1 10 μM” value is, setting by setting: (first of duplicate) 38.7%; (second of duplicate) 41.8%.

In the case of `NCCN1Cc2ccccc2C(CNC2CCCCC2)C1c1c(F)cccc1Cl` (centres unmarked) [TRG 2405-14], the “% Disp. MC-1 10 μM” value is, setting by setting: (first of duplicate) 34.2%; (second of duplicate) 29.6%.

Turning to `NCCN1Cc2ccccc2C(CNC2CCCCC2)C1c1ccccc1CN` (centres unmarked) [TRG 2405-15], the “% Disp. MC-1 10 μM” value reads like this: (first of duplicate) 23.5%; (second of duplicate) 52.5%.

Usually IC50 stands for the concentration that inhibits the measured activity by half.
